According to patent publication US20050266509A1, “Interaction of NMDA receptor with protein tyrosine phosphatase” (AGY Therapeutics, Inc., priority 2003, published 2005):

What was measured:
Assay type in all cases: biochemical
[1] = target: T1, T Cell (Homo sapiens, UniProt P17706); assay: FRET phosphatase assay, T Cell
T1 sequence (P17706 1-415): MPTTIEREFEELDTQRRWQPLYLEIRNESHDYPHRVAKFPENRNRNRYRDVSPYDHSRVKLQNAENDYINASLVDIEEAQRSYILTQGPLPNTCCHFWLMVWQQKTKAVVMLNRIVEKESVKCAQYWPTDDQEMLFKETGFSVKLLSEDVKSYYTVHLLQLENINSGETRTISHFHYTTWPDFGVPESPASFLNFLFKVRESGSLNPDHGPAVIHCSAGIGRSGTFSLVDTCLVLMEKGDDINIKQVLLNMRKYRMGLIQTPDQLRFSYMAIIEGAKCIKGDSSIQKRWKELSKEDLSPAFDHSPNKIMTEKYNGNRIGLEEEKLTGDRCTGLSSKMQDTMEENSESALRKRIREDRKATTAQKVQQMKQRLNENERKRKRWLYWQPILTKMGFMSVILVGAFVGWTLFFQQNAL
Method: (§1) For the enzyme activity assay, 2.5 μl of compound, 12.5 μl of enzyme, and 10 μl of substrate (separated by air gaps) are added to columns 3 through 24 by the Biomek FX in a single dispense. After the dispense, the tips are washed with DMSO and water for re-use between each quadrant. Once the assay plates are set up, they are incubated at 27° C. for 45 minutes. Then 20 μl of detection buffer is added to stop the reaction and to allow the Europium antibody (Eu-Ab) and streptavidin-APC to bind to the substrate.
(§2) The plates are then placed in the plate reader, an Analyst HT. Excitation light at 360 nm is used to excite the Europium antibody with an emission at 620 nm. Fluorescence resonance energy transfer (FRET) from Eu-Ab to APC will only occur when they are in close proximity. Therefore, when an APC emission is observed at 665 nm the enzyme has been inhibited from removing the phosphate group from the substrate. The FRET assay is time-resolved (TR), where there is a delay between excitation light and collection of emission signals. This reduces the amount of stray light created by short-lived fluorescing molecules. The Analyst HT measures APC and Europium emission signals and calculates the ratio between the two intensities. Typical intensities for the Europium is ˜2000 and APC is ˜600.
(§3) The following compounds were tested by FRET against the listed phosphatases, and the IC50 were obtained. […]

[2] = target: PTPB (Homo sapiens, UniProt P23467); assay: FRET phosphatase assay, PTPB
Method: as §1, §2, §3

[3] = target: T2, PTPMEG (Homo sapiens, UniProt P29074); assay: TR-FRET phosphatase activity assay, PTPMEG
T2 construct: Asp-Ser-6xHis (N); made in house; host or cells: E. coli BL21(DE3)
T2 sequence (P29074 655-911 limits assumed): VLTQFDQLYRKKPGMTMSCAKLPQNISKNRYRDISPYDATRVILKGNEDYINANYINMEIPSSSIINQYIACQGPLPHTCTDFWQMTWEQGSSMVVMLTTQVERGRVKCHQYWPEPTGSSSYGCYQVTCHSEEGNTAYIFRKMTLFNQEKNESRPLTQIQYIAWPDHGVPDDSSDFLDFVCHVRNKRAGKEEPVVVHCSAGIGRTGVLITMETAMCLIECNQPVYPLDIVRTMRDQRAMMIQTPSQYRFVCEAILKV
Method: Expression and Purification of PTPMEG The DNA sequence encoding the C-terminal 326 residues of PTPMEG (phosphatase domain) was subcloned into the pET-17b vector (Novagen) between the Ndel and Xhol restriction sites. An N-terminal tag consisting of Asp-Ser-6×His was incorporated at the beginning of the protein sequence. Protein expression was performed in BL21(DE3) cells at 37° C. with a 4 hour 0.5 mM IPTG induction. The cells were harvested by centrifugation and stored at −80° C. until needed for protein purification. Protein purification consisted of cell lysis by sonication, immobilized metal affinity chromatography (IMAC) on a Ni^2+-NTA column (Qiagen), followed by hydrophobic interaction chromatography (HIC) on a phenyl sepharose column (Amersham Pharmacia Biotech) and/or ion exchange chromatography (IEC) on a Q sepharose column (Amersham Pharmacia Biotech). The purified 38.3 kDa protein was buffer exchanged into 50 mM HEPES, pH 7.5 and stored at −80° C.
Phosphatase Buffer: 50 mm HEPES, pH 8; 1 mM DDT; 2 mM EDTA; 0.01% Brij solution; 10 mM MgCl2. […]
The plates are then placed in the plate reader, an Analyst HT. […] Fluorescence resonance energy transfer (FRET) from Eu-Ab to APC will only occur when they are in close proximity. […]

Chain of PTPB (P23467 1643-1997 limits assumed): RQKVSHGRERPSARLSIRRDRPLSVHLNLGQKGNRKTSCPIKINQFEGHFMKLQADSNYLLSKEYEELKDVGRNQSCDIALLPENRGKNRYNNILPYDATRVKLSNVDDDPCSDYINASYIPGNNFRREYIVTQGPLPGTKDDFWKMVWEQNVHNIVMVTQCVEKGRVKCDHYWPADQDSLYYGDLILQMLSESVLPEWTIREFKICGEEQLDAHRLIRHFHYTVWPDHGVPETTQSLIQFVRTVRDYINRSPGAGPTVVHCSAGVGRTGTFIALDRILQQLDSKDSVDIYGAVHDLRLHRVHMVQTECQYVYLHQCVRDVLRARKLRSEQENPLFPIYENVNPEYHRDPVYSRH

Compound: CCOC(=O)C(=CC1=C/C(=C/N(C)C)C(=O)O1)C(=O)OCC [AGY- 0046293]
- IC50 [1]: 6720 µM
- IC50 [2]: 23.2 µM
- IC50 [3]: 0.32 µM
